Assay results: patent publication US6187907A, “Triple helix coil template having a biologically active ligand” (priority 1998, dated 2001)
Bridge positions count the residues as written; N and C are the ends. Square brackets hold non-standard residues; d marks the D form. Peptide text beside a SMILES is read from it. I, II: the chains in the order shown. * marks the point of attachment. Succinyl(2R-iBu,4-NHOH) = CC(C)C[C@H](CC(=O)NO)C(=O)*; Hyp = O=C(O)[C@@H]1C[C@@H](O)CN1; Ahx = NCCCCCC(=O)O

Biological target: Human gelatinase
Assay: Inhibition of trypsin-activated human gelatinase, fluorogenic Mca peptide substrate
Format: biochemical
Conditions: substrate 10 μM, 37° C., 60 minutes, 5 minutes preincubation; read-out: IC50 against activated gelatinase
Description: Human gelatinase was activated with trypsin as follows. A reaction mixture was prepared in Tris buffer (pH 7.5) containing 20 mM Tris-HCl, 0.15 N NaCl, 4 μg/ml trypsin, 3 nM gelatinase and 5 mM CaCl2. The reaction mixture was incubated at 37° C. for 60 minutes and then soybean trypsin inhibitor was added at 44 μg/ml to quench the reaction.
The substrate was added at final 10 μM and was then further incubated at 37° C. for 60 minutes. The reaction was terminated by the addition of 750 μl of 0.1 N sodium acetate buffer (pH 4.0). The hydrolysis of the substrate was assessed by fluorescence, excitation at 328 nm and emission of 393 nm, with a Perkin-Elmer Fluorimeter LS-50B.

IC50 | Compound
2.3 nM | CC(C)C[C@H](CC(=O)NO)C(=O)N[C@@H](Cc1c[nH]c2ccccc12)C(=O)NCC(=O)N1CCC[C@H]1C(=O)N1C[C@H](O)C[C@H]1C(=O)NCC(=O)N1CCC[C@H]1C(=O)N1CCC[C@H]1C(=O)N[C@@H](CO)C(=O)NCC(=O)NCC(=O)NCCCCCC(=O)NCCCC[C@H](NC(=O)CCCCCNC(=O)CNC(=O)CNC(=O)[C@H](CO)NC(=O)[C@@H]1CCCN1C(=O)[C@@H]1CCCN1C(=O)CNC(=O)[C@@H]1C[C@@H](O)CN1C(=O)[C@@H]1CCCN1C(=O)CNC(=O)[C@H](Cc1c[nH]c2ccccc12)NC(=O)[C@@H](CC(=O)NO)CC(C)C)C(=O)N[C@@H](CCCCNC(=O)CCCCCNC(=O)CNC(=O)CNC(=O)[C@H](CO)NC(=O)[C@@H]1CCCN1C(=O)[C@@H]1CCCN1C(=O)CNC(=O)[C@@H]1C[C@@H](O)CN1C(=O)[C@@H]1CCCN1C(=O)CNC(=O)[C@H](Cc1c[nH]c2ccccc12)NC(=O)[C@@H](CC(=O)NO)CC(C)C)C(=O)NCC(N)=O [NHT1-L] (I: {Succinyl(2R-iBu,4-NHOH)}-WGP[Hyp]GPPSGG[Ahx]KKG-NH2 / II: {Succinyl(2R-iBu,4-NHOH)}-WGP[Hyp]GPPSGG[Ahx] / III: {Succinyl(2R-iBu,4-NHOH)}-WGP[Hyp]GPPSGG[Ahx]; amide I:12-II:C, I:13-III:C)
24 nM | I: {Succinyl(2R-iBu,4-NHOH)}-WGP[Hyp]GP[Hyp]GPPSGG[Ahx]KKG-NH2 / II: {Succinyl(2R-iBu,4-NHOH)}-WGP[Hyp]GP[Hyp]GPPSGG[Ahx] / III: {Succinyl(2R-iBu,4-NHOH)}-WGP[Hyp]GP[Hyp]GPPSGG[Ahx] (amide I:15-II:C, I:16-III:C) [NHT2-L]
